Where “and” joins values, the source holds several entries; their conditions need not be identical. Identical values can stand only once.
Tests used:
HeLa cells = assay: Cellular delivery studies with and without GO co-incubation, HeLa; type: cell-based; details: for Gd content (fmol/cell): 24 h, replicate values; for Gd content (fmol/cell), Outliers: values removed as outliers (Chauvenet's criterion, * experimenter judgment)
Experimental: ICP-MS Samples were prepared in 15-mL conical tubes by adding ACS reagent grade nitric acid (70%), followed by incubation at 70° C. overnight to allow for complete sample digestion. The effectiveness of this digestion protocol was previously validated for GO. After incubation, a multi-element internal standard (containing Bi, Ho, In, Li, Sc, Tb, and Y, Inorganic Ventures, Christiansburg, Va.) and milli-Q water (18.2 MΩ·cm) were added to produce a final sample of 3% (v/v) nitric acid and 5 ng/mL internal standard.
ICP-MS was performed on a computer-controlled (Plasmalab software) Thermo X series II ICP-MS (Thermo Fisher Scientific, Waltham, Mass., USA) operating in standard mode equipped with an ESI SC-2 autosampler (Omaha, Nebr., USA). Each sample was acquired using 1 survey run (10 sweeps) and 3 main (peak jumping) runs (100 sweeps). The isotopes selected for analysis were Gd with In and Ho isotopes selected as internal standards for data interpolation. Instrument performance is optimized daily through an autotune followed by verification via a performance report (passing manufacturer specifications). Instrument calibration was accomplished by preparing individual-element Gd standards (Inorganic Ventures, Christiansburg, Va., USA) using concentrations of 0.78125, 1.5625, 3.125, 6.25, 12.50, 25.00, 50.00, 100.0, and 200.0 ng/mL containing 3.0% nitric acid (v/v) and 5.0 ng/mL of multi-element internal standard.
Dulbecco's modified phosphate buffered saline (DPBS), media, and dissociation reagents were purchased from Life Technologies (Carlsbad, Calif.). CorningBrand® cell culture consumables (flasks, plates, etc.) and sera were purchased from VWR Scientific (Radnor, Pa.). HeLa cells (ATCC® CCL-2™) and KB cells (ATCC® CCL-17™) were purchased from the American Type Culture Collection (ATCC, Manassas, Va.) and cultured in phenol red-free minimum essential media (MEM) supplemented with 10% fetal bovine serum (FBS). Prior to all experiments, cells were plated and allowed to incubate for 24 hours before dosing. Cells were harvested with 0.25% TrypLE for 5 minutes at 37° C. in a 5.0% CO2 incubator. For sterilization, all Gd(III)-labeled molecules were filtered with 0.2 μm sterile filters prior to concentration determination and storage at 4° C. GO was used as prepared without further sterilization. […] Cells were grown in a humidified incubator operating at 37° C. and 5.0% CO2.
Cell counting was conducted using a Guava EasyCyte Mini Personal Cell Analyzer (EMD Millipore, Billerica, Mass.). After cell harvesting, an aliquot (50 μL) of the cell suspensions was mixed with Guava ViaCount reagent (150 μL) and allowed to stain at room temperature for at least 5 minutes. The dilution factor of 4 was determined based upon optimum machine performance (20-150 cells/μL). After vortexing for 10 sec, stained cells were counted using a Guava EasyCyte Mini Personal Cell Analyzer (PCA) using the ViaCount software module. For each sample, 1000 events were acquired. Gating of live/dead and cell/debris classifications were performed manually by the operator.
Cellular delivery studies were performed with HeLa and KB cells. HeLa and KB were plated at a cell density of approximately 25,000 and 50,000 cells per well, respectively, in a 24-well plate as counted by a hemocytometer. Stock solutions of 1-14 (1 mM), 150 nm GO (100 μg/mL), and 1500 nm GO (100 μg/mL) were prepared using sterile Milli-Q water. Prior to dosing, 80 μL ([…]) of each GO (150 nm and 1500 nm) and 80 μL (80 nmol) of each Gd(III)-labeled molecule (1-14) were mixed and allowed to adsorb for at least 15 minutes. 150 μL Gd(III)-GO solutions were added to 250 μL media to give a final concentration of 188 μM Gd and 18.8 μg/mL GO. Cells were incubated with the mixture of Gd(III)-labeled molecules and GO for […]. To harvest, cells were rinsed in-plate three times with 500 μL PBS and trypsinized using 100 μL 0.25% TrypLE. […]

[1] = Octanol-water partition coefficients; type: physicochemical; details: errors show SEM; Gd in each layer by ICP-MS
Experimental: Approximately 1 mg of each compound was dissolved in 1 mL of a 1:1 mixture of water/1-octanol. After shaking the sample tube vigorously for 30 s, the tube was placed on a rotator for gentle mixing over 6 h. The tube was then removed from the rotator and allowed to sit for 12 h to ensure complete separation of the aqueous and organic phases. […] Once separation was complete, 10 μL was removed from each layer to determine the concentration of Gd by ICP-MS. The partition coefficient was calculated from the following equation: log10P=log10(Co/Cw), where log10 P is the logarithm of the partition coefficient, Co is the concentration of Gd in the 1-octanol layer, and Cw is the concentration of Gd in the water layer.

[2] = +150 nm GO co-incubation, 188 μM Gd(III), 18.8 μg/mL GO
[3] = +1500 nm GO co-incubation, 188 μM Gd(III), 18.8 μg/mL GO
[4] = molecule alone, without GO, 188 μM Gd(III), 24-well plate

Structure (SMILES) | Gd content (fmol/cell) (HeLa cells; [2]) | Gd content (fmol/cell), Outliers (HeLa cells; +150 nm GO) | Gd content (fmol/cell) (HeLa cells; [3]) | Gd content (fmol/cell), Outliers (HeLa cells; +1500 nm GO) | Gd content (fmol/cell) (HeLa cells; [4]) | Water-Octanol LogP [1] | Delivery enhancement without adsorption time (HeLa cells; 1500 nm GO, 188 μM Gd(III), 18.8 μg/mL GO) | Gd content (fmol/cell), Outliers (HeLa cells; molecule alone, without GO)
O=C([O-])CN1CCN(CC(=O)[O-])CCN(CC(O)Cn2cc(CCCc3ccccc3)nn2)CCN(CC(=O)[O-])CC1.[Gd+3] (stereo not drawn) [Molecule 6] | 1.13 fmol/cell and 0.53 fmol/cell and 0.68 fmol/cell and 0.73 fmol/cell (2×) and 0.47 fmol/cell and 0.87 fmol/cell | 3.26 fmol/cell | 1.29 fmol/cell and 1.24 fmol/cell and 0.67 fmol/cell and 0.64 fmol/cell | 4.12 fmol/cell | 0.78 fmol/cell and 0.72 fmol/cell and 0.40 fmol/cell and 0.47 fmol/cell and 0.58 fmol/cell | −1.26 ± 0.08 | – | –
C[N+](C)(C)CCCc1cn(CC(O)CN2CCN(CC(=O)[O-])CCN(CC(=O)[O-])CCN(CC(=O)[O-])CC2)nn1.[Gd+3] (stereo not drawn) [Molecule 5] | 0.37 fmol/cell and 0.29 fmol/cell and 0.42 fmol/cell and 0.43 fmol/cell | 2.73 fmol/cell | 0.42 fmol/cell and 0.36 fmol/cell and 0.32 fmol/cell | – | 0.52 fmol/cell and 0.29 fmol/cell and 0.25 fmol/cell and 0.35 fmol/cell and 0.37 fmol/cell | −4.33 ± 0.46 | – | –
CCCCc1cn(CC(O)CN2CCN(CC(=O)[O-])CCN(CC(=O)[O-])CCN(CC(=O)[O-])CC2)nn1.[Gd+3] (stereo not drawn) [Molecule 1] | 0.63 fmol/cell (2×) and 0.44 fmol/cell and 0.58 fmol/cell and 0.57 fmol/cell (2×) and 0.76 fmol/cell | 1.11 fmol/cell and 1.24 fmol/cell | 0.59 fmol/cell and 0.58 fmol/cell and 0.39 fmol/cell and 0.77 fmol/cell and 0.86 fmol/cell and 0.76 fmol/cell and 0.64 fmol/cell | 1.18 fmol/cell and 1.45 fmol/cell | 0.62 fmol/cell and 0.67 fmol/cell and 0.36 fmol/cell and 0.63 fmol/cell and 0.40 fmol/cell | −2.18 ± 0.02 | – | –
CC(O)CN1CCN(CC(=O)[O-])CCN(CC(=O)[O-])CCN(CC(=O)[O-])CC1.[Gd+3] (stereo not drawn) [Molecule 13] | 1.09 fmol/cell and 1.47 fmol/cell and 1.02 fmol/cell | – | 1.36 fmol/cell and 1.84 fmol/cell and 0.82 fmol/cell and 1.59 fmol/cell and 1.47 fmol/cell | 0.53* fmol/cell and 0.55* fmol/cell | 0.51 fmol/cell and 0.42 fmol/cell and 0.61 fmol/cell | −3.59 ± 0.16 | – | –
NCCCCCCN1CCN(CC(=O)[O-])CCN(CC(=O)[O-])CCN(CC(=O)[O-])CC1.[Gd+3] [Molecule 9] | 28.63 fmol/cell and 32.09 fmol/cell and 29.78 fmol/cell | – | 11.67 fmol/cell and 20.36 fmol/cell and 14.83 fmol/cell | – | 6.86 fmol/cell and 7.54 fmol/cell and 4.78 fmol/cell and 7.33 fmol/cell and 8.77 fmol/cell and 6.65 fmol/cell and 7.40 fmol/cell | −3.98 ± 0.07 | same result | 13.02* fmol/cell and 14.46* fmol/cell and 18.05 fmol/cell and 24.04 fmol/cell
O=C([O-])CN1CCN(CC(=O)[O-])CCN(CC(O)Cn2cc(CCCO)nn2)CCN(CC(=O)[O-])CC1.[Gd+3] (stereo not drawn) [Molecule 2] | 0.84 fmol/cell and 0.81 fmol/cell and 0.90 fmol/cell | – | 0.59 fmol/cell and 0.88 fmol/cell and 0.70 fmol/cell | – | 0.30 fmol/cell and 0.38 fmol/cell and 0.36 fmol/cell | −3.98 ± 0.06 | – | –
O=C([O-])CN1CCNCCN(CC(=O)[O-])CCN(CC(=O)[O-])CC1.[Gd+3] [Molecule 7] | 0.53 fmol/cell and 0.39 fmol/cell (2×) and 0.42 fmol/cell and 0.44 fmol/cell (2×) and 1.09 fmol/cell and 0.73 fmol/cell | – | 0.63 fmol/cell and 0.55 fmol/cell and 0.68 fmol/cell and 0.50 fmol/cell and 1.05 fmol/cell and 1.36 fmol/cell | 6.54 fmol/cell and 4.00 fmol/cell | 0.47 fmol/cell and 0.39 fmol/cell and 0.51 fmol/cell and 0.46 fmol/cell and 0.75 fmol/cell and 0.83 fmol/cell | −3.71 ± 0.02 | – | 4.93* fmol/cell and 4.31* fmol/cell
O=C([O-])CN1CCN(CC(=O)[O-])CCN(CC(=O)[O-])CCN(CC(=O)[O-])CC1.[Gd+3] [Molecule 14] | 0.35 fmol/cell and 0.26 fmol/cell and 0.21 fmol/cell | – | 0.34 fmol/cell and 0.21 fmol/cell and 0.18 fmol/cell and 0.31 fmol/cell | 4.32 fmol/cell | 0.22 fmol/cell and 0.31 fmol/cell and 0.20 fmol/cell | −3.62 ± 0.23 | – | –
O=C([O-])CN1CCN(CC(=O)[O-])CCN(CC(O)Cn2cc(CCCC(=O)O)nn2)CCN(CC(=O)[O-])CC1.[Gd+3] (stereo not drawn) [Molecule 4] | 0.31 fmol/cell and 0.23 fmol/cell (2×) and 0.33 fmol/cell and 0.25 fmol/cell and 0.13 fmol/cell and 0.16 fmol/cell and 0.17 fmol/cell and 0.20 fmol/cell and 0.29 fmol/cell and 0.22 fmol/cell | 0.66 fmol/cell and 0.76 fmol/cell and 0.62 fmol/cell | 0.58 fmol/cell and 0.27 fmol/cell and 0.33 fmol/cell and 0.30 fmol/cell and 0.31 fmol/cell and 0.53 fmol/cell | 1.00 fmol/cell | 0.51 fmol/cell and 0.26 fmol/cell and 0.25 fmol/cell and 0.23 fmol/cell and 0.34 fmol/cell and 0.36 fmol/cell | −3.44 ± 0.28 | – | 0.76 fmol/cell
NCCCN1CCN(CC(=O)[O-])CCN(CC(=O)[O-])CCN(CC(=O)[O-])CC1.[Gd+3] [Molecule 8] | 13.40 fmol/cell and 20.22 fmol/cell and 14.84 fmol/cell | – | 7.61 fmol/cell and 7.56 fmol/cell and 6.31 fmol/cell | – | 0.68 fmol/cell and 1.78 fmol/cell and 1.87 fmol/cell and 1.16 fmol/cell and 0.94 fmol/cell and 1.30 fmol/cell and 1.48 fmol/cell | −3.86 ± 0.01 | – | –
